Measured values reported in EP1170365A1, “Member of the ion channel family of polypeptides; vanilrep4” (SMITHKLINE BEECHAM PLC, priority 2000, dated 2002).

Legend:
Assay type in all cases: cell-based
wild type HEK293 cells = experiment: FLIPR intracellular calcium assay (Fluo-3) in wild type HEK293 cells; settings: result in words
hVR1 = biological target: T1, hVR1 (Homo sapiens, UniProt Q8NER1); experiment: cell-based; settings: for activity at VR1: result in words
T1 construct: expressed in transfected cells; host or cells: HEK293 (transient)

[1] = test system: cells transfected with empty vector; experiment: FLIPR intracellular calcium assay (Fluo-3) in HEK293 cells transfected with empty vector; settings: result in words
hVR4 = biological target: T2, hVR4 (Homo sapiens, UniProt Q9HBA0); experiment: FLIPR intracellular calcium assay (Fluo-3) in HEK293 cells transiently expressing hVR4; settings: for effect on intracellular calcium: HEK293-hVR4 cells, result in words
T2 construct: expressed in transfected cells; host or cells: HEK293 (transient)
Experimental: HEK293 cells transiently expressing hVR1 or hVR4 were seeded into FLIPR96 plates at 25,000cells/well and cultured overnight. The cells were then loaded in medium containing 4microM Fluo-3 for 2hrs, at room temperature, in the dark. The cell plates were then washed 4x with Tyrode containing 1.5mM calcium and 0.2% BSA. Agonist and antagonist plates were prepared in the same buffer. Cells were preincubated with either antagonist or buffer at room temperature for 30 mins. Agonists additions and calcium measurements were made in the FLIPR (Smart et al., (2000) Br J. Pharmacol. 129, 227-230).

T2 sequence (Q9HBA0 whole entry): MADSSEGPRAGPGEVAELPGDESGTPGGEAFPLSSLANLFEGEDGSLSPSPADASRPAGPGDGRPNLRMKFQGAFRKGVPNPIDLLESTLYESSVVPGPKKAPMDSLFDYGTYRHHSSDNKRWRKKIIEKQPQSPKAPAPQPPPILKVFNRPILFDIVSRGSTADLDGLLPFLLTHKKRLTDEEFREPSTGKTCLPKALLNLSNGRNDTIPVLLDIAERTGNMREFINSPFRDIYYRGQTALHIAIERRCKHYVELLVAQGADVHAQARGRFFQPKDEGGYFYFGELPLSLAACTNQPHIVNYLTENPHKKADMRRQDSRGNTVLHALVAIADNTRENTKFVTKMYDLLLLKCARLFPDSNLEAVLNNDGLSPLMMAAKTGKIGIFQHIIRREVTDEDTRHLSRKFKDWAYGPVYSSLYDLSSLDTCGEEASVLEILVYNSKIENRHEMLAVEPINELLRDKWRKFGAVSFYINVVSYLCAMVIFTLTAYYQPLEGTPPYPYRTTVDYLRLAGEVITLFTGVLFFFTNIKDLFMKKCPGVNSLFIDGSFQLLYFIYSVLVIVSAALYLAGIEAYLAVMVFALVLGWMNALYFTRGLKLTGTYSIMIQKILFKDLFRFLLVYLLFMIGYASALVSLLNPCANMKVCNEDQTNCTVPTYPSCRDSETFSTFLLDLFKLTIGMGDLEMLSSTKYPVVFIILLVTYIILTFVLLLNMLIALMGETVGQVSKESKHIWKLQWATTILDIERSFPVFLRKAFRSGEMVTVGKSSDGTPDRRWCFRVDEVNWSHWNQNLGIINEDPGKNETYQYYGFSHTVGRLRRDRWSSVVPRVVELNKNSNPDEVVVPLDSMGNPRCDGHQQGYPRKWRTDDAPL
T1 sequence (Q8NER1 whole entry): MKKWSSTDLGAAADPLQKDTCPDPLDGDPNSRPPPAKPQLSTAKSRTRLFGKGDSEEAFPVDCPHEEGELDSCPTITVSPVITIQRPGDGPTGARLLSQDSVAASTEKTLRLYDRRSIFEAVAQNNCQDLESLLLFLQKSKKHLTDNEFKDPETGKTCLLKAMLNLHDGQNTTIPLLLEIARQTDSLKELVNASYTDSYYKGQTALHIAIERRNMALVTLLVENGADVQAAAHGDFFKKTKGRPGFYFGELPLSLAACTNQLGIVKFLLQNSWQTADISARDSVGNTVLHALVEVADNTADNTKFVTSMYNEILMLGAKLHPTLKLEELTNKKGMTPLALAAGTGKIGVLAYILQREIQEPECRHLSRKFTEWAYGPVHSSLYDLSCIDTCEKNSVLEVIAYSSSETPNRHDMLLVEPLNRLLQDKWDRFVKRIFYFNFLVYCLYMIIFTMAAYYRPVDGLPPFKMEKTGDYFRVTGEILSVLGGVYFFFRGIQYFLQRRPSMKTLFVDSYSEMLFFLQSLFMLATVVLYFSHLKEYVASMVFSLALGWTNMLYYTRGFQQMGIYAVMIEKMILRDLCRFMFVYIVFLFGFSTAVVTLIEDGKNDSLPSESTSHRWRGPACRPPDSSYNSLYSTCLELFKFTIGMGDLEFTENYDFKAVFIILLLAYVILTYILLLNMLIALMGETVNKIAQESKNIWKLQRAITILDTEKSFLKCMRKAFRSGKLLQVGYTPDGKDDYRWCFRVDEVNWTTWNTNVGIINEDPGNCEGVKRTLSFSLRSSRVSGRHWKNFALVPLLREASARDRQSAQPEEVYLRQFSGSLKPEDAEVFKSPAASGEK

Row | Structure (SMILES) | effect on intracellular calcium (wild type HEK293 cells) | activity at VR1 (hVR1; VR1) | effect on intracellular calcium [1] | effect on intracellular calcium (hVR4) | pEC50 (hVR4; HEK293 cells expressing hVR4, mean±s.e.mean, n=3-5, IA= inactive) | selectivity (hVR4; VR4 versus VR1, conclusion in words) | EC50 (hVR1) [µM] | Emax (hVR1; VR1, compared to capsaicin and RTX) | EC50 (hVR4) [µM]
1 | CCCCCCCCCC(=O)O[C@@H]1[C@@H](C)[C@@]2(O)[C@@H](C=C(CO)C[C@@]3(O)C(=O)C(C)=C[C@@H]23)[C@@H]2C(C)(C)[C@]12OC(=O)CCCCCCCCC [4αPDD, 4α-phorbol-12,13-didecanoate] | without effect | inactive | without effect | increased intracellular calcium | 5.73±0.06 | VR4 selective agonist | – | – | –
2 | CCCCCCCCCCCCCC(=O)O[C@@H]1[C@@H](C)[C@@]2(O)[C@@H](C=C(CO)C[C@]3(O)C(=O)C(C)=C[C@@H]23)[C@@H]2C(C)(C)[C@]12OC(C)=O [PMA, phorbol 12-myristate 13-acetate] | without effect | partial agonist | without effect | increased intracellular calcium | – | – | 0.0138 | 0.46 | 0.229
3 | C=C(C)C12CC(C)C34OC(Cc5ccccc5)(OC1C3C=C(COC(=O)Cc1ccc(O)c(OC)c1)CC1(O)C(=O)C(C)=CC14)O2 (centres unmarked) [RTX] | – | – | – | – | – | – | 0.00117 | – | –
